From PubChem BioAssay AID1259408 (Genetic Toxicology Data Bank (GENE-TOX), 2018)
Calls of active or inactive are those of the source. How the calls were made is not given here.

Tested on: GENE-TOX genotoxicity assays, various organisms and cells
Test: GENE-TOX mutagenicity studies
Conditions: for call: Assay Type: In vivo carcinogenicity studies, Assay Code: CCGT
[1] = Species/Cell Type: Nonhuman, Evaluation Type: Evaluation A (Pre-1980)
[2] = Species/Cell Type: Nonhuman, Assay Type: Sister-chromatid exchange (SCE) in vitro, Assay Code: SC2T, Evaluation Type: Evaluation B (Post-1980)
[3] = Species/Cell Type: Vicia faba, Assay Type: Chromosome aberrations, Assay Code: VIC+, Evaluation Type: Evaluation A (Pre-1980)

SMILES: C[C@@H]1C[C@@H]([C@H](O)CC2CC(=O)NC(=O)C2)C(=O)[C@@H](C)C1
- mutagenic call (Species/Cell Type: Drosophila melanogaster, Assay Type: Aneuploidy, whole sex chromosome loss, chromosome aberrations, Assay Code: DACT, Evaluation Type: Evaluation A (Pre-1980)): no conclusion
- mutagenic call (Species/Cell Type: Escherichia coli polA (W3110 vs P3478), Assay Type: Rec-assay, DNA effects (bacterial DNA repair), Assay Code: RE2+, Evaluation Type: Evaluation A (Pre-1980)): active; positive
- mutagenic call (Species/Cell Type: Escherichia coli polA (W3119 vs P3478), Assay Type: Rec-assay, DNA effects (bacterial DNA repair), Assay Code: RE1T, Evaluation Type: Evaluation A (Pre-1980)): no conclusion
- mutagenic call (Species/Cell Type: Mammalian polychromatic erythrocytes, Assay Type: Micronucleus test, chromosome aberrations, Assay Code: MNTT, Evaluation Type: Evaluation A (Pre-1980)): no conclusion
- mutagenic call (Species/Cell Type: Mouse, Sex: Male, Assay Type: Sperm morphology, Assay Code: SPI+, Evaluation Type: Evaluation A (Pre-1980)): active; positive
- mutagenic call (Species/Cell Type: Neurospora crassa, Assay Type: Aneuploidy, chromosome aberrations, Assay Code: NEN-, Evaluation Type: Evaluation A (Pre-1980)): inactive; negative
- call [1]: no conclusion
- mutagenic call [2]: no conclusion
- mutagenic call [3]: active; positive

SMILES: O=S(=O)(O)CCS
- mutagenic call (Species/Cell Type: Human lymphocytes, Assay Type: Sister-chromatid exchange (SCE) in vitro, Assay Code: SCLT, Evaluation Type: Evaluation B (Post-1980)): no conclusion
- mutagenic call (Species/Cell Type: Human, Assay Type: Sister-chromatid exchange (SCE) in vitro, Assay Code: SC1T, Evaluation Type: Evaluation B (Post-1980)): no conclusion

SMILES: Nc1ccc2c(n1)[nH]c1ccccc12
- mutagenic call (Species/Cell Type: Human, Assay Type: Sister-chromatid exchange (SCE) in vitro, Assay Code: SC1+D*, Activation: With metabolic activation, Dose Response: With dose response, Evaluation Type: Evaluation B (Post-1980)): active; positive

SMILES: NO
- mutagenic call (Species/Cell Type: Allium cepa, Assay Type: Chromosome aberrations, Assay Code: ALC+D, Dose Response: With dose response, Evaluation Type: Evaluation A (Pre-1980)): active; positive
- mutagenic call (Species/Cell Type: Arabidopsis species, Assay Type: Gene mutation, Assay Code: ARM-, Evaluation Type: Evaluation A (Pre-1980)): inactive; negative
- mutagenic call (Species/Cell Type: Drosophila melanogaster, Assay Type: Aneuploidy, sex chromosome gain, chromosome aberrations, Assay Code: DAGT, Evaluation Type: Evaluation A (Pre-1980)): no conclusion
- mutagenic call (Species/Cell Type: Drosophila melanogaster, Assay Type: Aneuploidy, whole sex chromosome loss, chromosome aberrations, Assay Code: DAC-M, Evaluation Type: Evaluation A (Pre-1980)): inactive; negative
- mutagenic call (Species/Cell Type: Drosophila melanogaster, Assay Type: Sex-linked recessive lethal gene mutation, Assay Code: SRLT, Evaluation Type: Evaluation A (Pre-1980)): no conclusion
- mutagenic call (Species/Cell Type: Escherichia coli polA (W3119 vs P3478), Assay Type: Rec-assay, DNA effects (bacterial DNA repair), Assay Code: RE1+, Evaluation Type: Evaluation A (Pre-1980)): active; positive
- mutagenic call (Species/Cell Type: Fischer rat embryo (RLV/1706) cells, Assay Type: Cell transformation, viral enhanced, Assay Code: CTR+, Evaluation Type: Evaluation A (Pre-1980)): active; positive
- mutagenic call (Species/Cell Type: Glycine max (soybean), Assay Type: Gene mutation, Assay Code: GLM-, Evaluation Type: Evaluation A (Pre-1980)): inactive; negative
- mutagenic call (Species/Cell Type: Human diploid fibroblasts, Assay Type: Unscheduled DNA synthesis (UDS) in vitro, DNA effects, Assay Code: UDH-, Evaluation Type: Evaluation A (Pre-1980)): inactive; negative
- mutagenic call (Species/Cell Type: Human lymphocytes or leukocytes, Assay Type: Chromosome aberrations in vitro, Assay Code: CY7-, Evaluation Type: Evaluation A (Pre-1980)): inactive; negative
- mutagenic call (Species/Cell Type: Mouse (BALB/c-3T3) cells, Assay Type: Cell transformation, Assay Code: CTB-, Evaluation Type: Evaluation A (Pre-1980)): inactive; negative
- mutagenic call (Species/Cell Type: Neurospora crassa, Assay Type: Forward gene mutation, Assay Code: NEF+, Evaluation Type: Evaluation A (Pre-1980)): active; positive
- call [1]: no conclusion
- mutagenic call (Species/Cell Type: Nonhuman, Assay Type: Sister-chromatid exchange (SCE) in vitro, Assay Code: SC2+D, Dose Response: With dose response, Evaluation Type: Evaluation B (Post-1980)): active; positive
- mutagenic call (Species/Cell Type: Saccharomyces cerevisiae, Assay Type: Forward gene mutation, Assay Code: YEF+, Evaluation Type: Evaluation A (Pre-1980)): active; positive
- mutagenic call (Species/Cell Type: Saccharomyces cerevisiae, Assay Type: Mitotic recombination or gene conversion, Assay Code: YEH+, Evaluation Type: Evaluation A (Pre-1980)): active; positive
- mutagenic call (Species/Cell Type: Salmonella typhimurium (one or more of the five standard strains: TA98, TA100, TA1535, TA1537, and TA1538), Assay Type: Histidine reverse gene mutation, Ames assay, Assay Code: SAL-, Evaluation Type: Evaluation A (Pre-1980)): inactive; negative
- mutagenic call (Species/Cell Type: Schizosaccharomyces pombe, Assay Type: Forward gene mutation, Assay Code: YEY+, Evaluation Type: Evaluation A (Pre-1980)): active; positive
- mutagenic call (Species/Cell Type: Syrian hamster embryo (SHE) cells, Assay Type: Cell transformation, clonal assay, Assay Code: CTC-, Evaluation Type: Evaluation A (Pre-1980)): inactive; negative
- mutagenic call [3]: active; positive

SMILES: C/C=C/C#CC#CC#C/C=C/C(O)CO (stereo not drawn)
- mutagenic call [2]: no conclusion
